Test results: US20220324835A1 (Nurix Therapeutics, Inc., priority 2018, published 2022)
Like-named read-outs stand apart in the source and are kept apart here.

Experiments:
[1] = tested on: anergic human T-cells; experiment: Anergic T-cell activation assessed by IFNγ secretion (ionomycin-induced anergy); assay type: cell-based; conditions: anergic T-cells re-challenged with anti-CD3 and anti-CD28 for 24 hours, read-out: IFNγ Fold change from baseline
Outline: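 Human primary T-cells (>95% CD3+) were activated with anti-CD3/anti-CD28 for 2 days, rested 3 days, then made anergic with ionomycin for 18-24 h. Compound (e.g. 10, 1.11, 0.37 μM) was added for 1 h before 24 h anti-CD3/CD28 re-challenge; IFNγ by ELISA or Luminex as fold over untreated anergic baseline, binned A ≤2.50, B 2.51-4.00, C >4.01.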

[2] = tested on: primary human NK cells; experiment: NK cell activation assessed by cytokine secretion (coculture with K562 NucRed target cells); assay type: cell-based; conditions: for fold induction at 0.625 µM: 0.625 μM compound; for fold induction at 2.5 µM: 2.5 μM compound
Outline: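 Read-out is cytokine secretion (IFNγ, TNFα, MIP1β; ELISA or Luminex) as fold over coculture without inhibitor, >2.0-fold taken as positive. Donor NK cells, IL-2 primed (60 ng/mL) overnight, received compound 1 h ahead (e.g. 0.1–10 μM, DMSO <0.1%) and were mixed 6 h with K562 NucRed targets at e.g. 5:1, 1:1, 1:5.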

[3] = K562, NK cells cocultured with K562 NucRed, 1:1 E/T, read-out: IFNγ secretion, fold change over baseline
[4] = K562, NK cells cocultured with K562 NucRed, 1:1 E/T, read-out: TNFα secretion, fold change over baseline
[5] = K562, NK cells cocultured with K562 NucRed, 1:1 E/T, 10 μM compound, read-out: IFNγ secretion, fold change over baseline
[6] = K562, NK cells cocultured with K562 NucRed, 1:1 E/T, 10 μM compound, read-out: TNFα secretion, fold change over baseline
[7] = K562, 1:1 E/T, read-out: IFNγ secretion
[8] = K562, 1:1 E/T, read-out: MIP1β secretion
[9] = K562, 1:1 E/T, read-out: TNFα secretion
[10] = K562, 1:1 E/T, 10 μM, read-out: IFNγ secretion
[11] = K562, 1:1 E/T, 10 μM, read-out: MIP1β secretion
[12] = K562, 1:1 E/T, 10 μM, read-out: TNFα secretion
[13] = K562, 5:1 E/T, read-out: IFNγ secretion
[14] = K562, 5:1 E/T, read-out: MIP1β secretion
[15] = K562, 5:1 E/T, read-out: TNFα secretion
[16] = K562, 5:1 E/T, 10 μM, read-out: IFNγ secretion
[17] = K562, 5:1 E/T, 10 μM, read-out: MIP1β secretion
[18] = K562, 5:1 E/T, 10 μM, read-out: TNFα secretion

C[C@H](Sc1nncn1C)c1cccc(NC(=O)c2cc(C(=O)N3CC[C@H](O)C3)ccn2)c1 [Compound 140, 4-[[(3S)-3-hydroxypyrrolidin-1-yl]carbonyl]-N-[3-[(1S)-1-[(4-methyl-4H-1,2,4-triazol-3-yl)sulfanyl]ethyl]phenyl]pyridine-2-carboxamide] showed a fold induction at 0.37 µM [1] of no more than 2.5, a fold induction at 1.11 µM [1] of no more than 2.5 and a fold induction at 10 µM [1] of 2.51 to 4. The fold induction at 0.625 µM [2, 3] was less than 1, the fold induction at 0.625 µM [2, 4] was less than 1 and the fold induction at 2.5 µM [2, 3] was less than 1. It also gave a fold induction at 2.5 µM [2, 4] of less than 1, a fold induction at 10 µM [2, 5] of 1.01 to 2 and a fold induction at 10 µM [2, 6] of less than 1.

In the case of C[C@H](Cc1nncn1C)c1cccc(NC(=O)c2ccnc(C(F)(F)F)n2)c1 [Compound 187, (R)-N-(3-(1-(4-methyl-4H-1,2,4-triazol-3-yl)propan-2-yl)phenyl)-2-(trifluoromethyl)pyrimidine-4-carboxamide], the fold induction at 1 µM [2, 7] is reported as 1.01 to 2, the fold induction at 1 µM [2, 8] is reported as 1.01 to 2 and the fold induction at 1 µM [2, 9] is reported as less than 1. For the same compound, the fold induction at 10 µM [2, 10] was 2.01 to 5, the fold induction at 10 µM [2, 11] was 2.01 to 5 and the fold induction at 10 µM [2, 12] was 2.01 to 5. It also gave a fold induction at 1 µM [2, 13] of 2.01 to 5, a fold induction at 1 µM [2, 14] of 1.01 to 2 and a fold induction at 1 µM [2, 15] of 2.01 to 5. For the same compound, the fold induction at 10 µM [2, 16] was greater than 5, the fold induction at 10 µM [2, 17] was 2.01 to 5 and the fold induction at 10 µM [2, 18] was greater than 5.

C[C@H](Cc1nncn1C)c1cccc(NC(=O)c2cccc(CCO)n2)c1 [Compound 202, 6-(2-hydroxyethyl)-N-[3-[(2R)-1-(4-methyl-4H-1,2,4-triazol-3-yl)propan-2-yl]phenyl]pyridine-2-carboxamide] was tested, and the fold induction at 0.37 µM [1] was no more than 2.5, the fold induction at 1.11 µM [1] was no more than 2.5 and the fold induction at 10 µM [1] was 2.51 to 4. For the same compound, the fold induction at 0.625 µM [2, 3] was 1.01 to 2, the fold induction at 0.625 µM [2, 4] was less than 1 and the fold induction at 2.5 µM [2, 3] was 1.01 to 2. For the same compound, the fold induction at 2.5 µM [2, 4] was 1.01 to 2, the fold induction at 10 µM [2, 5] was 2.01 to 5 and the fold induction at 10 µM [2, 6] was 1.01 to 2.

In the case of C[C@H](Cc1nncn1C)c1cccc(N2Cc3c(ccnc3C3CC3)C2=O)c1 [Compound 257, 4-cyclopropyl-2-[3-[(1R)-1-methyl-2-(4-methyl-1,2,4-triazol-3-yl)ethyl]phenyl]-3H-pyrrolo[3,4-c]pyridin-1-one], the fold induction at 0.37 µM [1] is reported as no more than 2.5, the fold induction at 1.11 µM [1] is reported as no more than 2.5 and the fold induction at 10 µM [1] is reported as 2.51 to 4. For the same compound, the fold induction at 0.625 µM [2, 3] was 1.01 to 2, the fold induction at 0.625 µM [2, 4] was 1.01 to 2 and the fold induction at 2.5 µM [2, 3] was 2.01 to 5. It also gave a fold induction at 2.5 µM [2, 4] of 1.01 to 2, a fold induction at 10 µM [2, 5] of 2.01 to 5 and a fold induction at 10 µM [2, 6] of 2.01 to 5.

In the case of Cn1cnnc1[C@@H]1C[C@@H]1c1cccc(N2Cc3c(cccc3C(F)(F)F)C2=O)c1 [Compound 282, 2-(3-((1S,2R)-2-(4-methyl-4H-1,2,4-triazol-3-yl)cyclopropyl)phenyl)-4-(trifluoromethyl)isoindolin-1-one], the fold induction at 0.37 µM [1] is reported as no more than 2.5, the fold induction at 1.11 µM [1] is reported as no more than 2.5 and the fold induction at 10 µM [1] is reported as no more than 2.5. It also gave a fold induction at 0.625 µM [2, 3] of 1.01 to 2, a fold induction at 0.625 µM [2, 4] of 1.01 to 2 and a fold induction at 2.5 µM [2, 3] of 1.01 to 2. For the same compound, the fold induction at 2.5 µM [2, 4] was 1.01 to 2, the fold induction at 10 µM [2, 5] was 2.01 to 5 and the fold induction at 10 µM [2, 6] was 2.01 to 5.

Compound Cn1cnnc1C(F)(F)[C@](C)(F)c1cccc(N2Cc3c(cccc3C(F)(F)F)C2=O)c1 [Compound 296a, (R)-2-(3-(1,1,2-trifluoro-1-(4-methyl-4H-1,2,4-triazol-3-yl)propan-2-yl)phenyl)-4-(trifluoromethyl)isoindolin-1-one] has a fold induction at 1 µM [2, 7] of 1.01 to 2, a fold induction at 1 µM [2, 8] of less than 1 and a fold induction at 1 µM [2, 9] of less than 1. It also gave a fold induction at 10 µM [2, 10] of 2.01 to 5, a fold induction at 10 µM [2, 11] of less than 1 and a fold induction at 10 µM [2, 12] of 1.01 to 2. It also gave a fold induction at 1 µM [2, 13] of less than 1, a fold induction at 1 µM [2, 14] of less than 1 and a fold induction at 1 µM [2, 15] of less than 1. For the same compound, the fold induction at 10 µM [2, 16] was 1.01 to 2, the fold induction at 10 µM [2, 17] was less than 1 and the fold induction at 10 µM [2, 18] was less than 1.

C[C@H](Cc1nncn1C)c1ccnc(NC(=O)c2cccc(C(F)(F)F)n2)c1 [Compound 302, (R)-N-(4-(1-(4-methyl-4H-1,2,4-triazol-3-yl)propan-2-yl)pyridin-2-yl)-6-(trifluoromethyl)picolinamide] was tested, and the fold induction at 0.37 µM [1] was no more than 2.5, the fold induction at 1.11 µM [1] was no more than 2.5 and the fold induction at 10 µM [1] was no more than 2.5. It also gave a fold induction at 0.625 µM [2, 3] of less than 1, a fold induction at 0.625 µM [2, 4] of 1.01 to 2 and a fold induction at 2.5 µM [2, 3] of 1.01 to 2. The fold induction at 2.5 µM [2, 4] was 1.01 to 2, the fold induction at 10 µM [2, 5] was 2.01 to 5 and the fold induction at 10 µM [2, 6] was 1.01 to 2.

For C[C@H](Cc1nncn1C)c1cccc(NC(=O)c2nc(C(F)(F)F)c[nH]2)c1 [Compound 326, (R)-N-(3-(1-(4-methyl-4H-1,2,4-triazol-3-yl)propan-2-yl)phenyl)-4-(trifluoromethyl)-1H-imidazole-2-carboxamide], the fold induction at 0.37 µM [1] was no more than 2.5, the fold induction at 1.11 µM [1] was no more than 2.5 and the fold induction at 10 µM [1] was 2.51 to 4. It also gave a fold induction at 0.625 µM [2, 3] of 1.01 to 2, a fold induction at 0.625 µM [2, 4] of 1.01 to 2 and a fold induction at 2.5 µM [2, 3] of 2.01 to 5. For the same compound, the fold induction at 2.5 µM [2, 4] was 2.01 to 5, the fold induction at 10 µM [2, 5] was 2.01 to 5 and the fold induction at 10 µM [2, 6] was 2.01 to 5.

In the case of Cn1cnnc1[C@@H]1C[C@@H]1c1cccc(N2Cc3c(ccnc3C(F)(F)F)C2=O)c1 [Compound 369, 2-{3-[(1S,2R)-2-(4-methyl-4H-1,2,4-triazol-3-yl)cyclopropyl]phenyl}-4-(trifluoromethyl)-1H,2H,3H-pyrrolo[3,4-c]pyridin-1-one], the fold induction at 0.37 µM [1] is reported as no more than 2.5, the fold induction at 1.11 µM [1] is reported as no more than 2.5 and the fold induction at 10 µM [1] is reported as 2.51 to 4. For the same compound, the fold induction at 0.625 µM [2, 3] was less than 1, the fold induction at 0.625 µM [2, 4] was less than 1 and the fold induction at 2.5 µM [2, 3] was 1.01 to 2. For the same compound, the fold induction at 2.5 µM [2, 4] was less than 1, the fold induction at 10 µM [2, 5] was 2.01 to 5 and the fold induction at 10 µM [2, 6] was 1.01 to 2.

In the case of Cc1cc2c(c(C3CC3)n1)CN(c1cccc([C@H](C)Cc3nncn3C)c1)C2=O [Compound 372, 4-cyclopropyl-6-methyl-2-{3-[(2R)-1-(4-methyl-4H-1,2,4-triazol-3-yl)propan-2-yl]phenyl}-1H,2H,3H-pyrrolo[3,4-c]pyridin-1-one], the fold induction at 0.37 µM [1] is reported as no more than 2.5, the fold induction at 1.11 µM [1] is reported as no more than 2.5 and the fold induction at 10 µM [1] is reported as 2.51 to 4. The fold induction at 0.625 µM [2, 3] was 1.01 to 2, the fold induction at 0.625 µM [2, 4] was less than 1 and the fold induction at 2.5 µM [2, 3] was 1.01 to 2. The fold induction at 2.5 µM [2, 4] was less than 1, the fold induction at 10 µM [2, 5] was 2.01 to 5 and the fold induction at 10 µM [2, 6] was 1.01 to 2.

With CNCc1ccc(C(=O)Nc2cccc([C@H](C)Cc3nncn3C)c2)nc1C1CC1 [Compound 376, (R)-6-cyclopropyl-N-(3-(1-(4-methyl-4H-1,2,4-triazol-3-yl)propan-2-yl)phenyl)-5-((methylamino)methyl)picolinamide] the fold induction at 0.37 µM [1] was no more than 2.5, the fold induction at 1.11 µM [1] was no more than 2.5 and the fold induction at 10 µM [1] was greater than 4.01. It also gave a fold induction at 0.625 µM [2, 3] of 1.01 to 2, a fold induction at 0.625 µM [2, 4] of 1.01 to 2 and a fold induction at 2.5 µM [2, 3] of 1.01 to 2. For the same compound, the fold induction at 2.5 µM [2, 4] was 1.01 to 2, the fold induction at 10 µM [2, 5] was 2.01 to 5 and the fold induction at 10 µM [2, 6] was 2.01 to 5.
